Laboratory results from ChEMBL document CHEMBL1147225, “Tricin from a malagasy connaraceous plant with potent antihistaminic activity” (J Nat Prod, 2003).

Legend:
RBL-2H3 = experiment: Antihistaminic activity in rat RBL2H3 cells assessed as inhibition of DNP-BSA-induced beta-hexosaminidase release preincubated for 10 mins before DNP-BSA challenge; assay type: functional, cell-based
[1] = Cytotoxicity against rat RBL2H3 cells at 500 uM by optical microscope; assay type: cell-based; conditions: rbl-2h3, 500 µM

| SMILES | IC50 (RBL-2H3) [µM] | Activity [1] |
| --- | --- | --- |
| O=c1cc(-c2ccccc2)oc2cc(O)cc(O)c12 [CHRYSIN] | > 500 | Non-toxic |
| COc1ccc(-c2cc(=O)c3c(O)cc(O)cc3o2)cc1OC | > 500 | Non-toxic |
| COc1cc(OC)cc(-c2cc(=O)c3ccccc3o2)c1 [3',5'-DIMETHOXYFLAVONE] | > 500 | Non-toxic |
| O=c1cc(-c2ccc(O)c(O)c2)oc2cc(O)cc(O)c12 [LUTEOLIN] | 58.2 | Non-toxic |
| COc1cc(-c2cc(=O)c3c(O)cc(O)cc3o2)cc(OC)c1O [TRICIN] | 4.83 | Non-toxic |
| COc1c(OC)c(O)c2c(=O)cc(-c3ccc(O)c(O)c3)oc2c1OC [SIDERITIFLAVONE] | > 500 | Non-toxic |
| COc1ccc(-c2cc(=O)c3c(OC)c(OC)c(OC)c(OC)c3o2)cc1 [TANGERETIN] | > 500 | Non-toxic |
| O=c1cc(-c2cc([N+](=O)[O-])cc([N+](=O)[O-])c2)oc2cc(O)cc(O)c12 | > 500 | Non-toxic |
| COc1cc(OC)cc(-c2cc(=O)c3c(O)cc(O)cc3o2)c1 | > 500 | Non-toxic |
| COc1ccc(-c2cc(=O)c3ccccc3o2)cc1OC [3',4'-DIMETHOXYFLAVONE] | > 500 | Non-toxic |

The remaining molecules from weak to strong by IC50 (RBL-2H3), led by results:

| IC50 (RBL-2H3) [µM] | SMILES | Activity [1] |
| --- | --- | --- |
| 1540 | O=C(O)c1cc(=O)c2c(OCC(O)COc3cccc4oc(C(=O)O)cc(=O)c34)cccc2o1 [CROMOLYN SODIUM] |  |
| 424 | COc1cc(-c2cc(=O)c3c(O)cc(O)cc3o2)cc(OC)c1OC | Non-toxic |
| 212 | COc1cc(-c2oc3cc(O)cc(O)c3c(=O)c2C(C)=O)cc(OC)c1O | Non-toxic |
| 203 | COc1c(OC)c(OC)c2c(=O)cc(-c3ccc(O)c(O)c3)oc2c1OC | Non-toxic |
| 179 | O=c1cc(-c2ccccc2)oc2cc(O)c(O)c(O)c12 [BAICALEIN] | Non-toxic |
| 161 | COc1cc2oc(-c3ccc(O)cc3)cc(=O)c2c(O)c1OC [CIRSIMARITIN] | Non-toxic |
| 124 | O=c1cc(-c2ccc(O)cc2)oc2cc(O)cc(O)c12 [APIGENIN] | Non-toxic |
| 97.5 | COc1cc(-c2cc(=O)c3ccccc3o2)cc(OC)c1O | Non-toxic |
| 67.2 | O=c1cc(-c2ccc(O)cc2)oc2cc(O)c(O)c(O)c12 [SCUTELLAREIN] | Non-toxic |
